Here are results for six compounds from patent US20090131302A1, “Transient receptor potential vanilloid 1 and uses thereof” (priority 2007, published 2009).

Entries after “also recorded” stand apart in the source; their conditions may differ.

Data set [1] addresses T1, TRPV1 (Rattus norvegicus, UniProt O35433).
T1 construct: endogenous in cells; host or cells: living rats (neonatal and adult); DRG and spinal cord tissue for the expression work
The data set is described as follows: Neonatal TRPV1 antagonist pre-treatment before P10 colonic acetic acid; sensitivity to colorectal distention at 8 weeks. The class given is in vivo. The method, then:
(§1) In the first experiment, 3 groups of 10 neonatal rats were used. While Group 1 received SB-366791, 1.3 mg/kg subcutaneously 30 minutes prior to colonic acetic acid administration. Group 2 received vehicle subcutaneously prior to colonic acetic acid administration, and Group 3 received vehicle prior to colonic saline administration. In the second experiment, 3 groups of 10 neonatal rats were used. All rats received a drug or vehicle subcutaneously 24 hours and 30 minutes prior to colonic acetic acid administration. Group 4 received SB-366791, 2.6 mg/kg, Group 5 received I-RTX, 2 mg/kg, and Group 6 received vehicle. For both experiments, at 8 weeks of age, EMG recordings and abdominal withdrawal reflex grades were simultaneously obtained in response to graded colorectal distention. To test the effect of TRPV1 inhibitors on adults, 2 groups of 10 rats were used: on post-natal day 10, Group 7 received colonic acetic acid, Group 8 received colonic saline. At 7 weeks of age, Groups 7 and 8 were split: half of each group received SB-366791, 1.3 mg/kg, and half vehicle, subcutaneously 30 minutes prior to colorectal distention. After one week of period, vehicle and drug groups were crossed-over and sensitivity to colorectal distention was measured again.
Ten days old rat pups received TRPV1 antagonist or vehicle subcutaneously 30 minutes prior to colon acetic acid infusion and were tested for sensitivity to colorectal distention at 8 weeks of age.
Thus, antagonism of the TRPV1 prior to neonatal administration of acetic acid attenuated the development of sensitivity to colorectal distention.

For data set [2], the target named is TRPV1 (Homo sapiens, UniProt Q8NER1). The following applies: cited from earlier work.
Data set [3] has as its system TRPV1. The following applies: cited from earlier work.
Data set [4] relates to p38. The following applies: models of inflammation and neuropathy; cited from earlier work.
Data set [5] deals with AMPA or NMDA mediated hippocampal synaptic transmission. As to conditions: cited from earlier work.
The subject of data set [6] is TRPV1. As to conditions: in vivo; cited from earlier work.
In data set [7] the test system is voltage-gated Ca++ currents or the hyperpolarization activated current in rat DRG neurons. As to conditions: at 1 mM; cited from earlier work.
For data set [8], the system named is 50 receptors of various types. Details: dose or concentration left out as unconfirmed. As to conditions: cited from earlier work.
The target of data set [9] is T1, TRPV1. The data set is described as follows: TRPV1 antagonism in adult rats neonatally treated with acetic acid or saline; graded colorectal distention. The class given is in vivo. As to conditions: 1.3 mg/kg 30 minutes prior to CRD. The method, then:
as §1
AWR scores of drug and vehicle treated rats as adults within each neonatal treatment group (P10 acetic acid or P10 saline) were compared at each distention pressure by Wilcoxon signed rank test.

Data set [10] deals with MEK. The following applies: cited from earlier work.
In data set [11] the target is T1, TRPV1. Briefly: Neonatal colonic capsaicin infusion; sensitivity to colorectal distention at 7 weeks. The class given is in vivo. The following applies: 0.2 ml of 50 mg/ml into colon at P10, tested at 7 weeks, 20, 40, 60, 80 mm Hg, vs unmanipulated and vehicle.
Experimental: To treat neonatal rats with capsaicin, ten day old rat pups received an infusion of 0.2 mls of 50 mg/ml capsaicin or 0.2 mls vehicle: 10% ethanol, 10% Tween 20, 80% saline or were left unmanipulated. Visceral sensitivity and inflammatory parameters were measured in these rats between 8 and 12 weeks of age. […] After 4 weeks, rats were tested for sensitivity to colorectal distention.
Visceral hypersensitivity was measured by grading the response of rats to colorectal distention as previously described.^11 Briefly, under mild sedation with 1% Brevital (Eli Lily & Co Indianapolis, Ind.) 25 mg/kg i.p.), a flexible balloon (5 cm) constructed from a surgical glove finger attached to a tygon tubing was inserted 8 cm into the descending colon and rectum via the anus and held in place by taping the tubing to the tail. Rats were placed in small Lucite cubicles (20×8×8 cm) (Bioengineering Department, UTMB) and were allowed to adapt for 30 minutes. […] Pressure was measured using a sphygmomanometer connected to a pressure transducer. […] Behavioral responses to colorectal distention were measured by visual observation of the abdominal withdrawal reflex by blinded observer and the assignment of an AWR score as follows: 1=Normal behavior without response 2=Contraction of abdominal muscles; 3=Lifting of abdominal wall; 4=Body arching and lifting of pelvic structures. […]
In data set [12] the test system is p38 and ERK. The following applies: peripheral administration; cited from earlier work.
For data set [13], the target named is T2, TRPV1 (Mus musculus, UniProt Q704Y3).
T2 construct: host or cells: colon and jejunal afferent fibre preparations
As to conditions: cited from earlier work.

The conditions of data set [14]: in vivo; cited from earlier work.
The subject of data set [15] is calcium channels. The following applies: at high concentrations; cited from earlier work.
Where [16] appears, read: 1.3 mg/kg s.c. 30 minutes prior to P10 acetic acid, tested at 8 weeks, 40, 60 and 80 mm Hg, vs vehicle.

T1 sequence (O35433 whole entry): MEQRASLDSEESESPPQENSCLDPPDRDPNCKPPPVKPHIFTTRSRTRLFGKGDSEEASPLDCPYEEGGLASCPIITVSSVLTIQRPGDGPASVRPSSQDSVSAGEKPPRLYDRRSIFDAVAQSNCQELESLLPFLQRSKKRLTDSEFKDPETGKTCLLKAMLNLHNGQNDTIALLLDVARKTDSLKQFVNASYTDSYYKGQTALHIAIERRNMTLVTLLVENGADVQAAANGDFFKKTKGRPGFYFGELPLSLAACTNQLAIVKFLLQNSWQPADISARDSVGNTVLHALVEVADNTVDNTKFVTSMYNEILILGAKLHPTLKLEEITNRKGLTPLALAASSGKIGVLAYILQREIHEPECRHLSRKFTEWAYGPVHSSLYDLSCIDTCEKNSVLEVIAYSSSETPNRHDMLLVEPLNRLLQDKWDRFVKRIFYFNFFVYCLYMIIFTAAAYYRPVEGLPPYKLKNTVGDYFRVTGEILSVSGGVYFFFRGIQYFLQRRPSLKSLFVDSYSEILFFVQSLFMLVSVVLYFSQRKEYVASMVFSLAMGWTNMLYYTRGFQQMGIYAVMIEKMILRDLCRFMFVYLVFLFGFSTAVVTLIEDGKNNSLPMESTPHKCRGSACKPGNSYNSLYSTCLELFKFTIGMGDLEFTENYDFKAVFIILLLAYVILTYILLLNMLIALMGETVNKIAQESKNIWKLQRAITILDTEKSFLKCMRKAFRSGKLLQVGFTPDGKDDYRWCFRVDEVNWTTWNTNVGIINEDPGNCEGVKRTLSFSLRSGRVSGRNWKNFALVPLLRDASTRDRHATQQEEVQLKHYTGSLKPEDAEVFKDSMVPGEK
Sequence of TRPV1 (Homo sapiens, UniProt Q8NER1) (Q8NER1 whole entry, species assumed): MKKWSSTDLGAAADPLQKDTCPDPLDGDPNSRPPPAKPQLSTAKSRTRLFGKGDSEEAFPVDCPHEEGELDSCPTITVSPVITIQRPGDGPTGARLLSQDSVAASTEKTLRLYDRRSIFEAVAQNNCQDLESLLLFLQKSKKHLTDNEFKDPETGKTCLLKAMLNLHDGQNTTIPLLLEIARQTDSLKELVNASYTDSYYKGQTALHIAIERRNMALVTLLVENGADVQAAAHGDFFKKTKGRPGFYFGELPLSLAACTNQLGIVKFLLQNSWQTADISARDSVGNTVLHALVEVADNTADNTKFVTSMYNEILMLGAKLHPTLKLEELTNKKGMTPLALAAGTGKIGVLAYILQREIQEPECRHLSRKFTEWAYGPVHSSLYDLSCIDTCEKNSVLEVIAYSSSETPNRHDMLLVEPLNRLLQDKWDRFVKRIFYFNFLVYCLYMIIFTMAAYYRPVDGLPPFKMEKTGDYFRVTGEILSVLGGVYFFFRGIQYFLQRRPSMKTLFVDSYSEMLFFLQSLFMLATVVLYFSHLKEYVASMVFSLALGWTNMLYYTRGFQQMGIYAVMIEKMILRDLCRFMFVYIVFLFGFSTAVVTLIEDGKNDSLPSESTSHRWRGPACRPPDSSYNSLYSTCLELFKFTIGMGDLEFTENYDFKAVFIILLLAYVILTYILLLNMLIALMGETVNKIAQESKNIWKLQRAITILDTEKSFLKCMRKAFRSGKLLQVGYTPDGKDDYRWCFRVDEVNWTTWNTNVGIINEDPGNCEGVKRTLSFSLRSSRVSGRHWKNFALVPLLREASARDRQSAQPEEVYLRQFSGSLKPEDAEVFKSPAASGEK
T2 sequence (Q704Y3 whole entry): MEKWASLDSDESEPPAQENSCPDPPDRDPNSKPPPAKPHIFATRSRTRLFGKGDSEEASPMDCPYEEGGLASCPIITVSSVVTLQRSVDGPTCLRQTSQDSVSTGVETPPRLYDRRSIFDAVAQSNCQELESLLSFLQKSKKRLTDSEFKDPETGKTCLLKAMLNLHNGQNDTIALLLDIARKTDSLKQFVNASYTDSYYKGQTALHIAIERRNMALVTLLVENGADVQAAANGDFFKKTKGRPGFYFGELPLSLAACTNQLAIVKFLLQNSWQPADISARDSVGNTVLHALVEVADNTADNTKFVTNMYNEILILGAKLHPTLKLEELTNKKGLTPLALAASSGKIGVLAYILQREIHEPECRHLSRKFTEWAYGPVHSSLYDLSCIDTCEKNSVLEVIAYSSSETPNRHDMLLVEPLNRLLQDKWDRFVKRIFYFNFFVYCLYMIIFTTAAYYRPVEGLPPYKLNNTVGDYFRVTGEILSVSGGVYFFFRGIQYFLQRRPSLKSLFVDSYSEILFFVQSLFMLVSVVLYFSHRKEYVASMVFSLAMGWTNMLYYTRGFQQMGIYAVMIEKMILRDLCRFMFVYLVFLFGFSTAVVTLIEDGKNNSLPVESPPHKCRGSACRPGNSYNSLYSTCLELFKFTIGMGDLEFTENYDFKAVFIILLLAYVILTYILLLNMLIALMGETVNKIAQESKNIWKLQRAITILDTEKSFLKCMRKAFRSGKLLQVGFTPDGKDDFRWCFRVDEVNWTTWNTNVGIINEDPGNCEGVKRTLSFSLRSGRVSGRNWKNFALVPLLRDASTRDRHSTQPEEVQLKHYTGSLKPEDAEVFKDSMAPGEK

Consider `C=C(C)[C@]12C[C@@H](C)[C@@]34O[C@](Cc5ccccc5)(O[C@@H]1[C@@H]3C=C(COC(=O)Cc1cc(I)c(O)c(OC)c1)C[C@]1(O)C(=O)C(C)=C[C@@H]41)O2` [I-RTX, 5′Iodoresiniferatoxin], for which the “sensitivity to colorectal distention by AWR grade” value is reported as “reduced sensitivity” in data set [1] (2 mg/kg s.c. 24 hours and 30 minutes prior to P10 acetic acid, 8 weeks, 10, 20 and 40 mm Hg); “significant decreased sensitivity” in data set [1] (2 mg/kg s.c. 24 hours and 30 minutes prior to P10 acetic acid, 8 weeks, 10, 20 and 40 mm Hg, listed as 1-RTX). Also, the “sensitivity to colorectal distention by EMG” value in data set [1] (2 mg/kg s.c. 24 hours and 30 minutes prior to P10 acetic acid, 8 weeks, 20, 40, 60 and 80 mm Hg) is “reduced sensitivity”; in data set [1] (2 mg/kg s.c. 24 hours and 30 minutes prior to P10 acetic acid, 8 weeks, 20, 40, 60 and 80 mm Hg, listed as 1-RTX) it was “significant decreased sensitivity”. The “potency and selectivity compared with capsezapine” value in [2] is “more potent and selective antagonists”. For the same compound, the “blocking TRPV1-mediated effects in several animal models in vivo” value in data set [3] is reported as “effective in blocking TRPV1-mediated effects”.

`C[S+]([O-])c1ccc(-c2nc(-c3ccncc3)c(-c3ccc(F)cc3)[nH]2)cc1` (stereo not drawn) [SB-203580]: in data set [4], the “development of behavioral hypersensitivity” value was “blocks the development of behavioral hypersensitivity”.

For `COc1cccc(NC(=O)C=Cc2ccc(Cl)cc2)c1` [SB-366791, N-(3-Methoxyphenyl)-4-chlorocinnamide], the “EMG activity in response to colorectal distention” value in [1] (setting [16]) is on record as “significantly less”. Moreover, the “sensitivity to colorectal distention by AWR grade” value in [1] (setting [16]) is “significant decreases in sensitivity to colorectal distention”; in [1] (2.6 mg/kg s.c. 24 hours and 30 minutes prior to P10 acetic acid, 8 weeks, 10, 20, 40 and 60 mm Hg), “reduced sensitivity; also recorded: significantly decreased sensitivity”. Besides, the “sensitivity to colorectal distention by EMG” value in data set [1] (2.6 mg/kg s.c. 24 hours and 30 minutes prior to P10 acetic acid, 8 weeks, 20, 40 and 60 mm Hg) is “reduced sensitivity; also recorded: significantly decreased sensitivity”. The acid-mediated activation result in [2] is “blocks acid-mediated activation”. Also, the “potency and selectivity compared with capsezapine” value in data set [2] is “more potent and selective antagonists”. Also, the Ki in data set [2] (competitive antagonist of capsaicin) was 18 nM. Also, the “effects on AMPA or NMDA mediated hippocampal synaptic transmission” value in data set [5] is “no effects”. Also, the “capsaicin effects on thermoregulation” value in [6] is recorded as “block capsaicin effects on thermoregulation”. Besides, in data set [7], the “effect on hyperpolarization activated current” value is on record as “little or no effect”. Moreover, the “effect on voltage-gated Ca++ currents” value in data set [7] is on record as “little or no effect”. Besides, the “effect in in vitro binding assays against 50 receptors of various types” value in data set [8] is “little or no effect”. The “AWR response to colorectal distention, P10 saline treated adult rats” value in data set [9] (10-80 mm Hg) is given as “no significant effect”. Besides, the “AWR response to colorectal distention, P10 acetic acid treated adult rats” value in [9] (10 and 80 mm Hg) is listed as “No significant differences”; in data set [9] (20 mm Hg) it was “trend towards significance”; in [9] (40 and 60 mm Hg, vs vehicle), “reduced sensitivity to CRD”; in data set [9] (40 and 60 mm Hg, vs vehicle, listed as SB-366,791), “significant decline”.

`N#CC(=C(/N)Sc1ccccc1N)/C(C#N)=C(\N)Sc1ccccc1N` [U0126]: in data set [10] (in vivo), the “epinephrine induced mechanical hypersensitivity” value is “reduces epinephrine induced mechanical hypersensitivity”. Besides, the “thermal and mechanical hypersensitivity” value in [10] (models of inflammation and neuropathic pain) is “attenuates thermal and mechanical hypersensitivity”.

For the compound `COc1cc(CNC(=O)CCCC/C=C/C(C)C)ccc1O` [capsaicin], the results for the “sensitivity to colorectal distention” value in data set [11] and in data set [11] (listed as CAP) were “increased sensitivity” and “significantly more sensitive to colorectal distention”, respectively. The “p38 and ERK activation in dorsal root ganglia neurons” value in data set [12] is “activates p38 and ERK”.

Consider `Oc1cc2c(cc1O)CN(C(=S)NCCc1ccc(Cl)cc1)CCC2` [capsazepine], for which, in data set [13], the “colon afferent fiber responses to stretch” value is recorded as “inhibited” and the “jejunal afferent responses to acid” value is given as “inhibited”. Also, the pharmacokinetic properties result in data set [14] is recorded as “poor pharmacokinetic properties”. In addition, in data set [15], the calcium channel block result is listed as “blocks calcium channels at high concentrations”.
